Source: patent US9862718B2, “Sodium salt of (2S, 5R)-6-benzyloxy-7-oxo-1,6-diaza-bicyclo [3.2.1] octane-2-carboxylic acid and its preparation” (WOCKHARDT LIMITED, priority 2013, dated 2018)

What was measured:
Assay type in all cases: physicochemical
[1] = stability study on storage at room temperature (purity by HPLC)
[2] = hygroscopicity of the isolated solid; conditions: isolated solid material, compared with the corresponding free acid
Experimental: (1) The compound of Formula (I) is isolable as a highly pure solid material (purity of about at least 98% as determined by HPLC) and is a non-hygroscopic material as compared with the corresponding free acid (compound of Formula (V), which is obtained as syrupy material).
The precipitated solid was filtered under suction and the wet cake was washed with chilled acetone (400 ml). The non-hygroscopic solid was dried under vacuum at 40° C. for 1 hour to provide off-white colored material (sodium salt of (2S,5R)-6-benzyloxy-7-oxo-1,6-diaza-bicyclo{3.2.1}-octane-2-carboxylic acid) in 135 gm (89%, calculation adjusted for 70% purity of free acid) quantity.

[3] = stability of the free acid on storage (attempts to prepare this compound); conditions: syrupy in nature
Description: The compound of Formula (V) i.e. (2S,5R)-6-benzyloxy-7-oxo-1,6-diaza-bicyclo[3.2.1]octane-2-carboxylic acid is disclosed in International Patent Application No. PCT/FR01/02418. […] US Patent Publication No. 20100197928 discloses a procedure to prepare a diastereomeric mixture of (S)-5-benzyloxyamino-piperidin-2-carboxylic acid benzyl ester as an oxalate salt in 50:50 ratio.

O=C([O-])[C@@H]1CC[C@@H]2CN1C(=O)N2OCc1ccccc1.[Na+] [Formula (I), sodium salt of (2S,5R)-6-benzyloxy-7-oxo-1,6-diaza-bicyclo[3.2.1]octane-2-carboxylic acid]
purity as analyzed by HPLC, initial purity ([1]; stability study, room temperature, initial): 99.75%
stability on storage ([1]; storage at room temperature for three months): excellent stability
purity as analyzed by HPLC, purity after three months ([1]; storage at room temperature, after three months): 99.66%
purity as analyzed by HPLC, purity after two moths ([1]; storage at room temperature, after two moths): 99.69%
hygroscopicity [2]: non-hygroscopic

O=C(O)[C@@H]1CC[C@@H]2CN1C(=O)N2OCc1ccccc1 [Formula (V), (2S,5R)-6-benzyloxy-7-oxo-1,6-diaza-bicyclo[3.2.1]octane-2-carboxylic acid]
stability on storage [3]: unstable
